Earlier results, collected in paper PMC10239758 (European journal of medicinal chemistry, 2023).
≈ marks a conversion by molar mass, not a printed value.

Test system: Mtb strain H37Rv
Conditions: cited from earlier work

## Cc1cc(C)c2cc(C(=O)NC3CCCCCC3)[nH]c2c1 [Compound 6]
  MIC H37Rv: 3.9 ng/mL (≈ 0.0137 µM)
